Test results as given in article PMC5108032, “Discovery of a Quinoline-4-carboxamide Derivative with a Novel Mechanism of Action, Multistage Antimalarial Activity, and Potent in Vivo Efficacy” (Journal of Medicinal Chemistry, 2016).
Several values for one entry are separate records, joined by “and”; a condition that tells them apart may be missing. Equal entries are not always repeated. Where two headings read alike, the source gives them in different places. Marks after values point to notes of the source that are not given here.

How the values were obtained:
[1] = Parallel artificial membrane permeability assay (PAMPA); assay type: in vitro ADME
P. berghei ANKA strain = experiment: In vivo antimalarial efficacy in the P. berghei mouse model (Peter's test); design: species or system Plasmodium berghei in female NMRI mice; conditions: for cure / inhibition in vivo at 1 mg/kg: once daily; for cure: mice cured / mice in group; for inhibition in vivo at 1 mg/kg: Plasmodium berghei, po, 96 h, 4 × 1 mg/kg oral, read-out: activity (reduction of parasitemia)
Description: Compound 41 was dosed as a bolus solution intravenously at 1 mg free base/kg (dose volume: 5 mL/kg; dose vehicle: 5% DMSO;saline) or by gavage orally as solution at 3 mg free base/kg (dose volume: 10 mL/kg; Dose vehicle: 0.5% w/v hydroxypropylmethylcellulose with 0.4% v/v Tween 80 and 0.5% v/v benzyl alcohol) to male Sprague Dawley rats (n=3/dose route). Blood samples were taken from each rat at 5, 15, 30 min, 1, 2, 4, 6, 8, 24 and 30 h post-dose, mixed with two volumes of distilled water and stored frozen until UPLC/MS/MS analysis.
Pharmacokinetic parameters were derived from the blood concentration time curve for each compound using PKsolutions software v 2.0 (Summit Research Services, USA).
In vivo antimalarial efficacy studies in P. berghei. (Swiss TPH)
In vivo efficacy was conducted as previously described10 with the modification that female NMRI mice (n = 3) were infected with a GFP-transfected P. berghei ANKA strain (donated by A. P. Waters and C. J. Janse, Leiden University, The Netherlands), and parasitaemia determined (96 h after infection) using standard flow cytometry techniques. Compounds 1, 25, 27, 30 and 49 were prepared in 10% DM SO, 40% PEG 400 and 50% water prior to administration orally, once daily for 4 days.
Compounds 40, 41, 43 and 44 were prepared in a non-solubilizing, standard suspension vehicle called HPMC (0.5% [wt/vol] hydroxypropylmethylcellulose, 0.5% [vol/vol] benzyl alcohol, 0.4% [vol/vol] Tween 80, and 0.9% [wt/vol] sodium chloride in water) prior to administration orally, once daily for 4 days. Blood samples were collected on day 4 (96 h after infection) in two volumes water. Animals […]
and then hourly up to 4 h after dosing each day. The animals were selected randomly for each group

Pf (3D7) = experiment: Ligand efficiency metrics (LE, LLE, LELP), selectivity and fold changes; design: species or system Plasmodium falciparum
[2] = design: method as in PMID 26085270; conditions: mouse liver microsome; cited from earlier work
[3] = design: method as in PMID 26085270; conditions: rat liver microsome; cited from earlier work
[4] = design: method as in PMID 26085270; conditions: human liver microsome; cited from earlier work
[5] = design: method as in PMID 26085270; conditions: potentiometric titration, value in parentheses; cited from earlier work
[6] = design: method as in PMID 26085270; conditions: pH 7.4; cited from earlier work
[7] = design: method as in PMID 26085270; conditions: mouse plasma protein binding; cited from earlier work
[8] = design: method as in PMID 26085270; conditions: mouse, iv dose 1 mg/kg; cited from earlier work
[9] = design: method as in PMID 26085270; conditions: male Sprague Dawley rat, intravenous at 1 mg/kg; cited from earlier work
[10] = Mammalian cell growth inhibition counter-screen (resazurin); assay type: cell-based, human; conditions: human, MRC-5 cells (normal diploid human fibroblasts)
Description: (§1) Plasmodium falciparum screening
(§2) Assays against P. falciparum were conducted as previously described.1 Cultures of the widely-used malaria reference strain of chloroquine-sensitive Plasmodium falciparum strain 3D7 were maintained in a 5% suspension of human red blood cells (obtained from East of Scotland Blood Transfusion Service, Ninewells Hospital, Dundee) cultured in RPMI 1640 medium (pH 7.3) supplemented with 0.5% Albumax II (Gibco Life Technologies, San Diego, CA), 12 mM sodium bicarbonate, 0.2 mM hypoxanthine and 20 mg/L gentamicin at 37°C, in a humidified atmosphere of 1% O 2, 3% CO2 with a balance of nitrogen. Growth inhibition was quantified using a fluorescence assay utilising the binding of SYBR green to double stranded DNA, which emits a fluorescent signal at 528 nm after excitation at 485nm.2 Mefloquine (potency range 30-60 nM) was used as a drug control to monitor the quality of the assay (Z’ = 0.6 to 0.8, Signal to background >3, where Z’ is a measure of the discrimination between the positive and negative controls on a screen plate). A 96-well [3H]-Hypoxanthine incorporation assay was also developed as a secondary assay in order to validate compounds from the initial screen in an orthogonal platform.3 Compound bioactivity from both assays was expressed as […]
(§3) P. falciparum (panel of resistant strains) in vitro assay. (Swiss TPH)
(§4) All Plasmodium strains were cultured according to Trager and Jensen and are described at www.beiresources.org (resistant strains: K1, W2, 7G8, TM90C2A, D6 and V1/S, sensitive strain:
(§5) NF54). EC50 values were determined in vitro by measuring incorporation of the nucleic acid precursor […]
(§6) Mammalian Cell Growth Inhibition assay
(§7) A counter-screen against normal diploid human fibroblasts (MRC-5 cell line) was carried out to exclude non-selective, and toxic compounds. The assay was essentially carried out as described previously.4 Cells were plated and incubated overnight to allow them to adhere as monolayers. A working stock of each test compound was transferred to an intermediate 384-well plate and pre-diluted with minimum essential media (MEM). The pre-diluted stocks were then transferred onto the cell monolayers, and the plates were incubated for 68 h. Resazurin, to a final concentration of 50 μM, was added to each well, after which plates were incubated for a further 3 h and measured for fluorescence (λex=528 nm, λem=590 nm)
(§8) In vitro Cell Assay Data Analysis.
(§9) All data was processed using IDBS ActivityBase® raw data was converted into per cent inhibition through linear regression by setting the high inhibition control as 100% and the no inhibition control as 0%. Quality control criteria for passing plates were as follows: Z’> 0.5, S:B> 3, %CV(no inhibition < 15 . The formula used to calculate Z’ is 1 3× (St D e v _ hi gh + St D e v _ low) . […]
(§10) All EC50 Curve fitting was undertaken using XLFit version 4.2 using Model 205 with the following 4 parametric equation: y = A + B A A + ($-&) ,where A=% inhibition at bottom, B=% […]
(§11) inhibition at top, C= EC50, D= slope, x= inhibitor concentration and y= % inhibition. […]
(§12) reach 100% of inhibition, B was fixed to 100 only when at least 50% of inhibition was reached.
(§13) Plasmodium falciparum late stage (IV-V) gametocyte high content imaging assay Plasmodium falciparum NF54-pfs16-LUC-GFP stage IV-V Gametocytes were produced as described previously.5 Compounds were solubilized in DMSO and serially diluted in three concentrations per log standard curves in DM SO. One µl of compound was subsequently diluted in 25µl of water (4% DMSO) and 5µl transferred into the base of 384 well PerkinElmer CellCarrier plates. Forty-five µl of stage IV-V gametocytes (10%P in 0.1%H) were added to the imaging plates which were in turn sealed with a gas permeable membrane and incubated at 37°C, 5% CO 2, 5% O2, 90% N2 and 60% humidity […]
(§14) Post incubation, 5µl of MitoTracker® Red CM -H2Xros (MTR) solution (0.66ug/ml) was added to all wells and the plates incubated for a further 16hours. […]

[11] = system: Plasmodium falciparum strain 3D7; experiment: Plasmodium falciparum screening, SYBR green growth inhibition; assay type: cell-based; conditions: 3D7, supplementary csv, read-out: Pf (3D7) EC50
Description: as §1, §2, §3, §4, §5, §6, §7, §8, §9, §10, §11, §12, §13, §14

[12] = Intrinsic clearance (Cli) in mouse liver microsomes; assay type: in vitro ADME; conditions: mouse liver microsome
Excerpt: as §11, §12, §13
(§15) Post incubation, 5µl of MitoTracker® Red CM -H2Xros (MTR) solution (0.66ug/ml) was added to all wells and the plates incubated for a further 16hours. The assay plates were then imaged and the number of viable gametocytes determined for test compounds plus 0.4%DMSO and 5µM Puromycin.
(§16) (0.4%DMSO) control values. Percent inhibition was plotted against log compound concentration using a 4 parameter log dose, non-linear regression analysis, with sigmoidal dose response (variable slope) curve fit using Prizm 4.0. IC50 values were obtained from this curve fit. The compound testing was performed in duplicate point within two separate experiments.
(§17) Plasmodium berghei ookinete development assay
(§18) Assay was performed as previously reported.6 Briefly blood containing P. berghei CTRPp-GFP gametocytes was rapidly harvested from infected mice and introduced to test compounds pre-diluted in ookinete medium (to induce gamete formation and support ookinete development) in 96-well plates. Plates were incubated in the dark at 21°C for 22 hr before GFP fluorescence intensity measured in a plate reader. % inhibition of ookinete formation was calculated with reference to the fluorescence intensity values of a positive control (20 µM cycloheximide) and a solvent-only negative control (DMSO). All assays were performed in triplicate independent experiments and EC50 values calculated in Graphpad Prism.
(§19) The aqueous solubility of the test compounds was measured using laser nephelometry, as described previously.7 Compounds were subject to serial dilution from 10 mg/mL to 0.5 mg/mL in DMSO. An aliquot was then mixed with MilliQ water to obtain an aqueous dilution plate with a final concentration range of 100 – 5 μg/mL, with a final DMSO concentration of 1.0%. Triplicate aliquots were transferred to a flat bottomed polystyrene plate which was immediately read on the NEPHELOstar (BMG Lab Technologies). The amount of laser scatter caused by insoluble particulates (relative nephelometry units, RNU) was plotted against compound concentration using a segmental regression fit, with the point of inflection being quoted as the compounds aqueous solubility (μg/mL; […]
(§20) Intrinsic Clearance (Cli) experiments
(§21) The procedure was carried out as reported previously.7 Test compound (0.5 µM) was incubated with female CD1 mouse, male sprague-dawley rat or pooled human mixed gender liver microsomes (Xenotech LLC TM; 0.5 mg/mL 50 mM potassium phosphate buffer, pH 7.4) and the reaction initiated […]
by the addition of excess NADPH (8 mg/mL 50 mM potassium phosphate buffer, pH 7.4).
Immediately, at time zero, then at 3, 6, 9, 15 and 30 min an aliquot (50 μL) of the incubation mixture was removed and mixed with acetonitrile (100 μL) to stop the reaction. Internal standard was added to all samples, the samples centrifuged to sediment precipitated protein and the plates then sealed prior to UPLC-MS/MS analysis using a Quattro Premier XE (Waters Corporation, USA).
XLfit (IDBS, UK) was used to calculate the exponential decay and consequently the rate constant (k) from the ratio of peak area of test compound to internal standard at each timepoint. The rate of […]

[13] = Experimental pKa by potentiometric titration; assay type: physicochemical; conditions: value in parentheses, read-out: R^3 group pKa, experimental
Excerpt: Table 4 SAR Study of the R^3 Substituent: Aromatic Groups | column: R^3 group pKa^a

[14] = Intrinsic clearance (Cli) in rat liver microsomes; assay type: in vitro ADME; conditions: rat liver microsome
Excerpt: as §11, §12, §13, §15, §16, §17, §18, §19, §20, §21
(§22) by the addition of excess NADPH (8 mg/mL 50 mM potassium phosphate buffer, pH 7.4). […]

[15] = Intrinsic clearance (Cli) in human liver microsomes; assay type: in vitro ADME; conditions: human liver microsome
Excerpt: as §11, §12, §13, §15, §16, §17, §18, §19, §20, §21, §22

[16] = Pf (3D7), relative to the comparator compound of the sentence

For `O=C(NCCN1CCCC1)c1cc(-c2ccc(CN3CCOCC3)cc2)nc2ccc(F)cc12` [Compound 2], the increase in permeability ([1]; relative to the earlier lead) was “more than 30 fold”, the cure (P. berghei ANKA strain; 4 × 3 mg/kg oral) was 2/3 and the cure (P. berghei ANKA strain; 4 × 10 mg/kg oral) was 3/3. For the same compound, the cure (P. berghei ANKA strain; 4 × 30 mg/kg oral, 30 mg/kg) was “complete cure and 3/3”, the ED90 (P. berghei ANKA strain; dosed orally for 4 days) was 0.1 to 0.3 mg/kg and the “LLE (ligand-lipophilicity efficiency)” value (Pf (3D7)) was 5.9. The “improvement / increase in potency” value (Pf (3D7); [16]) was 70 fold, the “MLM Cli” value [2] was under 0.5 mL min^–1 g^–1 and the “RLM Cli” value [3] was at most 0.8 mL min^–1 g^–1. The “HLM Cli” value [4] was at most 1.1 mL min^–1 g^–1, the “R^3 group pKa, experimental” value [5] was 6.8 and the “PAMPA Pe” value [6] was 7.3 ×10⁻⁶ cm/s. For the same compound, the PPB [7] was 63%, the Clb [8] was 12 ^b mL min^–1 kg^–1 and the Clb [9] was 18 mL min^–1 kg^–1.

In the case of `Cc1ccc(-c2cc(C(=O)Nc3cccnc3)c3ccccc3n2)cc1` [Compound 12, N-(Pyridine-3-yl)-2-(p-tolyl)quinoline-4-carboxamide], the EC50 at 68 h [10] is reported as over 50 µM and the drop in potency (Pf (3D7); [16]) is reported as 8 fold.

`O=C(NCCN1CCCC1)c1cc(NCCC2CCOCC2)nc2ccc(F)cc12` [Compound 29, 6-Fluoro-N-(2-(pyrrolidin-1-yl)ethyl)-2-((2-(tetrahydro-2H-pyran-4-yl)ethyl)amino)quinoline-4-carboxamide] showed an EC50 [11] of 0.0017 µM and an EC50 at 68 h [10] of over 50 µM.

In the case of `O=C(NCCN1CCCC1)c1cc(-c2ccc(CN3CCOCC3)c(F)c2)nc2ccc(F)cc12` [Compound 40], the “MLM Cli” value [12] is reported as 1.0 mL min^–1 g^–1, the pKa [13] is reported as 6.1 and the inhibition in vivo at 1 mg/kg (P. berghei ANKA strain) is reported as over 99%.

With `O=C(NCCN1CCCC1)c1cc(-c2ccc(CN3CCS(=O)(=O)CC3)cc2)nc2ccc(F)cc12` [Compound 43] the “MLM Cli” value [12] was under 0.5 mL min^–1 g^–1, the “RLM Cli” value [14] was 0.8 mL min^–1 g^–1 and the inhibition in vivo at 1 mg/kg (P. berghei ANKA strain) was over 99%.

For `O=C(NCCN1CCCC1)c1cc(-c2ccc(CN3CCCC3=O)cc2)nc2ccc(F)cc12` [Compound 44], the “MLM Cli” value [12] was 2.0 mL min^–1 g^–1, the “RLM Cli” value [14] was 0.6 mL min^–1 g^–1 and the “HLM Cli” value [15] was 2 mL min^–1 g^–1.

`CC(C)NCC(O)COc1cccc2ccccc12` (centres unmarked) [propanolol, reference compound] showed a Papp at 5 h, 10 µM ([1]; pH 7.4, read-out: PAMPA Pe) of 15.9 ×10⁻⁶ cm/s.
